87 compounds from ChEMBL document CHEMBL2218064, “Structure-activity relationship data for chemical series of antagonists of the P2X7 receptor (Supplementary Bioactivity Data for publication CHEMBL1157114)” can be followed below.

The assay has as its target T1, P2X purinoceptor 7 (Homo sapiens, UniProt Q99572).
T1 sequence (Q99572 whole entry): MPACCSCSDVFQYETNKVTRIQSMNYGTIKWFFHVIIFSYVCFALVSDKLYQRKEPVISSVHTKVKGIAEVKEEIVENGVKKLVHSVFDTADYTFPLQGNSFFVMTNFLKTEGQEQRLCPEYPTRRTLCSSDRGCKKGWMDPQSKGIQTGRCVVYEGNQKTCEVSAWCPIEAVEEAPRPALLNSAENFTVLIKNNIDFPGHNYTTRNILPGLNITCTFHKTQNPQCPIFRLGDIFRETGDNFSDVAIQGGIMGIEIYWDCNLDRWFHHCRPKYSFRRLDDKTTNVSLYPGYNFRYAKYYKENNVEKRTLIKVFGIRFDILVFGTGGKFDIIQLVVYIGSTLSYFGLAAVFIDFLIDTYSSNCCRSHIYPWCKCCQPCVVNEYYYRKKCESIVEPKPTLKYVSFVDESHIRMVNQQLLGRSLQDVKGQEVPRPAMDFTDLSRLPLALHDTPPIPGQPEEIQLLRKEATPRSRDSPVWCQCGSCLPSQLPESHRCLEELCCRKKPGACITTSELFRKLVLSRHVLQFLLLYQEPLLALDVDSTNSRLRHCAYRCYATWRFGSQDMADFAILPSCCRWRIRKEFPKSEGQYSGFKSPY
Put plainly: SUPPLEMENTARY: Inhibition of human P2X7 receptor assessed as inhibition of ethidium bromide accumulation. Same assay as CHEMBL1103860.
Turning to `CC(C)(C)c1nnc2n1CCN(C(=O)c1cccc(C(F)(F)F)c1Cl)C2`, the IC50 (usually the concentration needed to halve the response being measured) is 200 nM.
As to `O=C(c1ccc(F)cc1Cl)N1CCn2c(nnc2-c2ccccc2)C1`, the IC50 was 12.6 nM.
The same measure for `Cn1ccc(-c2nnc3n2CCN(C(=O)c2cccc(C(F)(F)F)c2Cl)C3)n1`: 5.01 nM; for `Cn1cccc1-c1nnc2n1CCN(C(=O)c1cccc(C(F)(F)F)c1Cl)C2`: 6.31 nM; for `Cc1cc(-c2nnc3n2CCN(C(=O)c2cccc(C(F)(F)F)c2Cl)C3)no1`: 12.6 nM.
For the compound `O=C(c1ccc(F)cc1Cl)N1CCn2c(nnc2-c2cnccn2)C1`, the IC50 is 5.01 nM.
On to `O=C(c1cccc(C(F)(F)F)c1Cl)N1CCn2c(nnc2-c2ccc[nH]2)C1`, for which the IC50 is 1.58 nM.
In the case of `O=C(c1cccc(C(F)(F)F)c1Cl)N1CCn2c(nnc2-c2cscn2)C1`, the IC50 was 1.58 nM.
Regarding `O=C(c1cccc(C(F)(F)F)c1Cl)N1CCn2c(nnc2-c2cccnn2)C1`, the IC50 was 12.6 nM.
For the compound `O=C(c1cccc(C(F)(F)F)c1Cl)N1CCn2c(nnc2-c2ccc(F)cn2)C1`, the IC50 was 2.51 nM.
Turning to `Cn1cccc1-c1nnc2n1CCN(C(=O)c1cccc(Cl)c1Cl)C2`, the IC50 is 12.6 nM.
As to `Cc1cc(-c2nnc3n2CCN(C(=O)c2cccc(Cl)c2Cl)C3)no1`, the concentration for half-maximal inhibition (IC50) is 25.1 nM.
As for `O=C(c1cccc(Cl)c1Cl)N1CCn2c(nnc2-c2cccnn2)C1`, the IC50 is 31.6 nM.
Regarding `O=C(c1ccc(F)cc1Cl)N1CCn2c(nnc2-c2cccnn2)C1`, the half-maximal inhibitory concentration (IC50) is 501 nM.
Consider `Cn1ccc(-c2nnc3n2CCN(C(=O)c2cccc(Cl)c2Cl)C3)n1`, for which the IC50 was 6.31 nM.
Turning to `O=C(c1cccc(Cl)c1Cl)N1CCn2c(nnc2-c2ccc[nH]2)C1`, the IC50 is 2.51 nM.
As to `O=C(c1cccc(Cl)c1Cl)N1CCn2c(nnc2-c2cscn2)C1`, the IC50 was 1 nM.
For `Cn1nccc1-c1nnc2n1CCN(C(=O)c1cccc(C(F)(F)F)c1Cl)C2`, the IC50 is 15.8 nM.
Consider `O=C(c1ccc(F)cc1Cl)N1CCn2c(Br)nnc2C1`, for which the IC50 was 316 nM.
The same measure for `O=C(c1cccc(C(F)(F)F)c1Cl)N1CCn2c(nnc2-c2ccco2)C1`: 1.58 nM; for `Cn1nccc1-c1nnc2n1CCN(C(=O)c1cccc(Cl)c1Cl)C2`: 25.1 nM.
For the compound `O=C(c1ccc(F)cc1Cl)N1CCn2c(Br)cnc2C1`, the IC50 is 501 nM.
On to `O=C(c1cccc(C(F)(F)F)c1F)N1CCn2c(nnc2-c2ccccn2)C1`, for which the IC50 is 5.01 nM.
For `O=C(c1ccc(Cl)cc1Cl)N1CCn2c(nnc2-c2cnccn2)C1`, the IC50 was 3.16 nM.
Under `O=C(c1ccc(F)cc1C(F)(F)F)N1CCn2c(nnc2-c2ccccn2)C1` stands 31.6 nM; under `O=C(c1ccc(Cl)cc1Cl)N1CCn2c(nnc2-c2ccc(F)cn2)C1`, 12.6 nM; under `O=C(c1cccc(C(F)(F)F)c1Cl)N1CCn2c(-c3ccc(F)cn3)cnc2C1`, 3.98 nM.
`O=C(c1ccc(Cl)cc1Cl)N1CCn2c(nnc2-c2cscn2)C1`: the half-inhibitory concentration (IC50) was 2 nM.
As to `O=C(c1cccc(Cl)c1Cl)N1CCn2c(nnc2-c2ccc(F)cc2)C1`, the IC50 is 3.16 nM.
For the compound `O=C(c1cccc(Cl)c1Cl)N1CCn2c(nnc2-c2ccc(F)cc2F)C1`, the IC50 was 12.6 nM.
In the case of `O=C(c1ccc(F)cc1Cl)N1CCn2c(nc(C(F)(F)F)c2Br)C1`, the IC50 was 31.6 nM.
For `O=C(c1ccc(Cl)cc1Cl)N1CCn2c(nnc2-c2ccc(F)cc2)C1`, the IC50 was 15.8 nM.
Regarding `O=C(c1ccc(Cl)cc1Cl)N1CCn2c(nnc2-c2ccc(F)cc2F)C1`, the IC50 was 100 nM.
As to `O=C(c1ccc(Cl)cc1Cl)N1CCn2c(nnc2-c2ccncn2)C1`, the IC50 was 31.6 nM.
`O=C(c1ccccc1Cl)N1CCn2c(nnc2-c2cscn2)C1`: the IC50 is 10 nM.
The same measure for `O=C(c1ccc(Cl)c(Cl)c1)N1CCn2c(nnc2-c2cnccn2)C1`: 31.6 nM; for `O=C(c1ccc(Cl)c(C(F)(F)F)c1)N1CCn2c(nnc2-c2cnccn2)C1`: 31.6 nM; for `O=C(c1ccc(F)c(C(F)(F)F)c1)N1CCn2c(nnc2-c2cnccn2)C1`: 12.6 nM.
For `O=C(c1ccc(F)c(Cl)c1)N1CCn2c(nnc2-c2cnccn2)C1`, the IC50 was 20 nM.
Consider `Cc1cc(F)ccc1C(=O)N1CCn2c(nnc2-c2cnccn2)C1`, for which the IC50 is 15.8 nM.
Under `O=C(c1ccccc1Cl)N1CCn2c(nnc2-c2ccncn2)C1` stands 158 nM; under `O=C(c1ccccc1Cl)N1CCn2c(nnc2-c2ccc(F)cn2)C1`, 39.8 nM; under `O=C(c1ccccc1Cl)N1CCn2c(nnc2-c2ccc(F)cc2)C1`, 79.4 nM.
As for `O=C(c1ccccc1Cl)N1CCn2c(nnc2-c2cnccn2)C1`, the IC50 is 20 nM.
The same measure for `O=C(c1ccccc1Cl)N1CCn2c(nnc2-c2ncccc2F)C1`: 31.6 nM.
Under `O=C(c1ccccc1C(F)(F)F)N1CCn2c(nnc2-c2ccccn2)C1` stands 63.1 nM.
With `O=C(c1cccc(Cl)c1Cl)N1CCn2c(-c3ccccc3)cnc2C1`, the IC50 was 5.01 nM.
The same measure for `O=C(c1ccc(F)cc1Cl)N1CCn2c(-c3ccccc3)cnc2C1`: 15.8 nM.
The same measure for `O=C(c1c(Cl)cc(Cl)cc1Cl)N1CCn2c(-c3ccccc3)cnc2C1`: 12.6 nM.
As for `O=C(c1cccc(C(F)(F)F)c1Cl)N1CCn2c(nnc2N2CCOCC2)C1`, the IC50 was 251 nM.
On to `CN(C)c1nnc2n1CCN(C(=O)c1cccc(C(F)(F)F)c1Cl)C2`, for which the IC50 is 20 nM.
The same measure for `O=C(c1cccc(C(F)(F)F)c1Cl)N1CCN(c2cccc(N3CCOCC3)c2Cl)C(=O)C1`: 12.6 nM; for `O=C(c1cccc(C(F)(F)F)c1Cl)N1CCn2c(-c3ccc(F)cc3)cnc2C1`: 12.6 nM; for `Cc1c(N2CCOCC2)cccc1N1CCN(C(=O)c2cccc(Cl)c2Cl)CC1=O`: 15.8 nM.
As for `Cc1c(N2CCOCC2)cccc1N1CCN(C(=O)c2cccc(C(F)(F)F)c2Cl)CC1=O`, the IC50 was 12.6 nM.
Consider `Cc1c(N2CCOCC2)cccc1N1CCN(C(=O)c2c(Cl)cc(Cl)cc2Cl)CC1=O`, for which the IC50 was 39.8 nM.
Regarding `Cc1nnc2n1CCN(C(=O)c1cccc(C(F)(F)F)c1Cl)C2`, the IC50 is 31.6 nM.
As for `Cc1ccc(N2CCC(O)C2)cc1N1CCN(C(=O)c2cccc(C(F)(F)F)c2Cl)CC1=O` (configuration not stated), the IC50 is 10 nM.
The same measure for `Cc1ccc(-c2cccc(N3CCN(C(=O)c4cccc(C(F)(F)F)c4Cl)CC3=O)c2C)cn1`: 50.1 nM.
For `CCc1nnc2n1CCN(C(=O)c1cccc(C(F)(F)F)c1Cl)C2`, the IC50 is 31.6 nM.
As for `O=C(c1cccc(C(F)(F)F)c1Cl)N1CCn2c(Br)cnc2C1`, the IC50 is 10 nM.
`O=C(c1cccc(C(F)(F)F)c1Cl)N1CCn2c(nnc2-c2cccnc2)C1`: the IC50 is 6.31 nM.
As to `Cc1ccccc1-c1cnc2n1CCN(C(=O)c1cccc(C(F)(F)F)c1Cl)C2`, the IC50 is 100 nM.
On to `COc1nnc2n1CCN(C(=O)c1cccc(C(F)(F)F)c1Cl)C2`, for which the IC50 was 79.4 nM.
On to `CNc1nnc2n1CCN(C(=O)c1cccc(C(F)(F)F)c1Cl)C2`, for which the IC50 was 251 nM.
Consider `O=C(c1cccc(C(F)(F)F)c1Cl)N1CCn2c(nnc2N2CCC2)C1`, for which the IC50 is 25.1 nM.
Regarding `O=C(c1cccc(C(F)(F)F)c1Cl)N1CCn2c(nnc2N2CCCCC2)C1`, the IC50 is 100 nM.
Under `CC(c1ccccc1)N1CCN(C(=O)c2cccc(C(F)(F)F)c2Cl)CC1=O` (configuration not stated) stands 31.6 nM; under `O=C(c1cccc(C(F)(F)F)c1Cl)N1CCn2c(nc(I)c2I)C1`, 6.31 nM.
Consider `O=C(c1cccc(C(F)(F)F)c1Cl)N1CCn2c(nnc2-c2ccncc2)C1`, for which the IC50 was 25.1 nM.
On to `O=C(c1cccc(C(F)(F)F)c1Cl)N1CCn2c(I)cnc2C1`, for which the IC50 was 3.98 nM.
Consider `Cc1cnc2n1CCN(C(=O)c1cccc(C(F)(F)F)c1Cl)C2`, for which the IC50 is 50.1 nM.
The same measure for `O=C(c1cccc(C(F)(F)F)c1Cl)N1CCn2c(nc(C(F)(F)F)c2Br)C1`: 5.01 nM; for `O=C(c1cccc(Cl)c1Cl)N1CCn2c(Br)nnc2C1`: 50.1 nM.
As for `O=C(c1cccc(C(F)(F)F)c1Cl)N1CCn2c(nc(C(F)(F)F)c2-c2ccccc2)C1`, the IC50 was 50.1 nM.
`O=C(c1ccc(Cl)cc1Cl)N1CCn2c(Br)nnc2C1`: the IC50 is 200 nM.
Under `O=C(c1c(Cl)cc(Cl)cc1Cl)N1CCn2c(Br)nnc2C1` stands 398 nM.
As to `O=C(c1cccc(C(F)(F)F)c1F)N1CCn2c(Br)nnc2C1`, the IC50 is 79.4 nM.
Take `Cc1cn2c(n1)CN(C(=O)c1cccc(C(F)(F)F)c1Cl)CC2`: the IC50 was 126 nM.
Regarding `Cc1cn2c(n1)CN(C(=O)c1cccc(Cl)c1Cl)CC2`, the IC50 was 316 nM.
For the compound `O=C(c1cccc(C(F)(F)F)c1Cl)N1CCn2c(-c3cccc(C(F)(F)F)c3Cl)cnc2C1`, the IC50 was 631 nM.
In the case of `O=C(c1cccc(C(F)(F)F)c1Cl)N1CCn2c(-c3ccc(Cl)cc3)cnc2C1`, the IC50 was 251 nM.
Under `CC(C)(C)c1cn2c(n1)CN(C(=O)c1cccc(C(F)(F)F)c1Cl)CC2` stands 631 nM; under `O=C(c1cccc(C(F)(F)F)c1Cl)N1CCn2cc(-c3ccccc3)nc2C1`, 316 nM; under `O=C(c1cccc(Cl)c1Cl)N1CCn2cc(-c3ccccc3)nc2C1`, 631 nM.
For the compound `O=C(c1cccc(C(F)(F)F)c1Cl)N1CCn2c(nnc2-c2ccncn2)C1`, the IC50 was 12.6 nM.
The same measure for `O=C(c1cccc(C(F)(F)F)c1Cl)N1CCn2c(nnc2-c2ccc(F)cc2F)C1`: 15.8 nM.
